Experimental data as given in patent US20240426847A1, “COMPOSITIONS AND METHODS FOR THE DETERMINATION OF SODIUM CONCENTRATION” (The University of Chicago, priority 2023, published 2024).

Columns and labels:
PIKfyve = biological target: T1, PIKfyve (Mus musculus, UniProt Q9Z1T6); test: Pharmacological inhibition of macrophages, lysosomal Na^+ measured with RatiNa; format: cell-based, murine; conditions: RAW 264.7 macrophages, 100 nM apilimod 1 h; native lysosomes ~48 mM
T1 construct: endogenous in cells; host or cells: RAW 264.7 macrophages
Protocol: 1 μM RatiNa in prewarmed Opti-MEM was added to RAW macrophage and incubated for 2 h for maximum RatiNa uptake. Cells were then washed 3 times with PBS and incubated in prewarmed complete DMEM medium for 30 min to allow lysosome targeting of RatiNa. RatiNa in cell was then imaged in confocal microscope or widefield microscope.
RAW macrophage was treated with 100 nM apilimod for 1 h to inhibit PIKfyve. RatiNa treatment was done as stated previously with 100 nM apilimod in all medium. Cell was then imaged in confocal microscope.

[1] = ssDNA-CG Na^+ sensitivity by fluorescence; format: physicochemical; conditions: 1 mM and 150 mM NaCl, 100 nM ssDNA-CG, pH 7.4 potassium phosphate buffer
Protocol: FIGS. 12A-12B illustrate the validation of CG-DNA conjugate efficiency and Na^+ sensitivity. […] Molar ratio of DNA to CG is confirmed to be ˜ 1:1 confirming the coupling efficiency. […] 1 mM and 150 mM NaCl was added to 100 nM of ssDNA-CG in pH 7.4 potassium phosphate buffer. Fluorescence maximum at 545 increases more than 5-fold.
100 nM of RatiNa was aliquoted in UB buffer (10 mM HEPES, MES and potassium acetate, 140 mM NaCl/KCl). pH adjusted by HCl or KOH) Fluorescent emission spectra was taken by Fluoromax (Horiba) with the following collection parameters: For CG, dex=522 nm, range from 530 nm to 600 nm. For ATTO647N, dex=645 nm, range from 660 nm to 700 nm.

T1 sequence (Q9Z1T6 whole entry): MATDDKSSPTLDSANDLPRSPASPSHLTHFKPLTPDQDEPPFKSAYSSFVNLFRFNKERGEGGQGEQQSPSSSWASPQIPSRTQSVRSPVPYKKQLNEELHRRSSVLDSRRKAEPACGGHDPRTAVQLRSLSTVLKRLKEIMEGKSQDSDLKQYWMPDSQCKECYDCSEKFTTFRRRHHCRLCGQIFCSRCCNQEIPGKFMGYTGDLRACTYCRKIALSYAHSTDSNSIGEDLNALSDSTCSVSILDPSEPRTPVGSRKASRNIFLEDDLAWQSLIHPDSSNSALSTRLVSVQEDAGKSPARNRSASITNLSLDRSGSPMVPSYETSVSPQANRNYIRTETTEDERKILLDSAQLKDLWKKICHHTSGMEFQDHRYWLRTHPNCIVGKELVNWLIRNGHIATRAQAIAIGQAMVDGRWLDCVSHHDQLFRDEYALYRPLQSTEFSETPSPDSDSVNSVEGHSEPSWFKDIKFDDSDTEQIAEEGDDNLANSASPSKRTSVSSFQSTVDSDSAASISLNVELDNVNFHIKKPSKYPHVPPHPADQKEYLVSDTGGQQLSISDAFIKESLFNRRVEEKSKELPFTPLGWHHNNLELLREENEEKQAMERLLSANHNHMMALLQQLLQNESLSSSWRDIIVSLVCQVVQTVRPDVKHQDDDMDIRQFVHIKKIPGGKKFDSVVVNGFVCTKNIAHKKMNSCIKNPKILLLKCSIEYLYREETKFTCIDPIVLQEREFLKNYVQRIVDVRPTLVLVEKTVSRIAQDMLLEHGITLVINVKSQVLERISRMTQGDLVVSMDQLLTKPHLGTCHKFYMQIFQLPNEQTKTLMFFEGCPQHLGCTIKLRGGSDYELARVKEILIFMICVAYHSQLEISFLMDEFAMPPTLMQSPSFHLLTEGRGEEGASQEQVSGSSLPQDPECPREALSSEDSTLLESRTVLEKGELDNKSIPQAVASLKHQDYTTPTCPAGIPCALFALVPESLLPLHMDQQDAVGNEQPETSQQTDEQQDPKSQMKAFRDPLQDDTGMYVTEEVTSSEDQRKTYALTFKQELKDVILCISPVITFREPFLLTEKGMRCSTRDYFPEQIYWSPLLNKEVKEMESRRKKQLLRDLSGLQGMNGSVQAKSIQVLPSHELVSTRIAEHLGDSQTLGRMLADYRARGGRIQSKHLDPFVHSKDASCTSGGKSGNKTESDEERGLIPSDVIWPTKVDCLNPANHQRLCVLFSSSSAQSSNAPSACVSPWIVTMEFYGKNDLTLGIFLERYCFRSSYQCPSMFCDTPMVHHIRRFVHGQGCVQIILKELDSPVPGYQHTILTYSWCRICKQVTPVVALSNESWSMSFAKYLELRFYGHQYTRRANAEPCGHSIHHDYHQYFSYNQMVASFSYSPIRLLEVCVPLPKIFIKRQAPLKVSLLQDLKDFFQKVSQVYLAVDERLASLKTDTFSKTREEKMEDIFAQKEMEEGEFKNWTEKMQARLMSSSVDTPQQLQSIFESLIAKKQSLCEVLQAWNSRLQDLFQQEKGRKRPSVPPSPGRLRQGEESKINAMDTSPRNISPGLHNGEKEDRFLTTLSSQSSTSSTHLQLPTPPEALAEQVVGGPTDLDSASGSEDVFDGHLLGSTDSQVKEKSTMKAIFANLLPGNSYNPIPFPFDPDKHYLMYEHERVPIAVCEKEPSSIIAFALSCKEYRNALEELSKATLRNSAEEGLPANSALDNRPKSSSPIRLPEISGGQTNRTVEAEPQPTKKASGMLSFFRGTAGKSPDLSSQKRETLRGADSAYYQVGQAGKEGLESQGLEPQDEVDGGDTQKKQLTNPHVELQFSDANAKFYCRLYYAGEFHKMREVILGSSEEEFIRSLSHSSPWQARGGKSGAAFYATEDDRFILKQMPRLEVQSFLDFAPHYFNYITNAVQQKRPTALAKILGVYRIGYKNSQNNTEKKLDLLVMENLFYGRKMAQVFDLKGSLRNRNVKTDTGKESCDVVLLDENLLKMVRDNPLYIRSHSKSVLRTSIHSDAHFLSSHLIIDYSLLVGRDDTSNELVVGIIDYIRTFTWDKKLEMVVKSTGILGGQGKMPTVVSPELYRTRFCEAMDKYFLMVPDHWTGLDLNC

| Molecule | lysosomal Na^+ upon PIKfyve inhibition (PIKfyve) [mM] | increase of fluorescence maximum at 545 [1] |
| --- | --- | --- |
| Cc1cccc(/C=N/Nc2cc(N3CCOCC3)nc(OCCc3ccccn3)n2)c1 [apilimod] | ~70 |  |
| ssDNA-CG: 25mer ssDNA conjugated to CG dye by CuAAC coupling (CGATCAACACTGCATATATATACGACC; CG dye conjugated by CuAAC, chemistry not fully specified) |  | more than 5 fold |
